Assay results as given in patent publication US10807992B2, “Single enantiomer antiparasitic compounds” (priority 2017, dated 2020).
Read-outs that look alike come from different tables or passages of the source.

Columns and labels:
[1] = test system: Aedes aegypti; assay: In vitro ingestion activity against adult mosquitoes (artificial feeding, bovine blood); conditions: read-out: Mortality % R1 + R2
Procedure: Aedes aegypti (Louisiana Biologicals Inc., New Orleans, La.) eggs were allowed to hatch, close, and age between 3-5 days in an environmental chamber at 26° C., 80% humidity with light/dark cycles.
For mosquito ingestion tests, serial dilutions of the compound stock were performed using DMSO to achieve the desired range for EC50 and EC90 determination. An aliquot of each compound dilution was added to organic bovine blood with a final DMSO concentration of 0.5% and placed in a temperature-controlled artificial feeding container.
(§1) Compounds tested were: the C1 racemate, C1 (R) enantiomer, and the C1 (S) enantiomer. For Trial 3, the C1 (R) enantiomer and the C1 (S) enantiomer were further chiral purified to achieve >99% purity.
For both contact and ingestion assays, five female Aedes aegypti adults were added to each vial or cage. The test vials for contact assays were held in an environmental chamber at 24° C., 80% humidity with light/dark cycles (12 hours each). The cages for mosquito ingestion assays were held in a temperature-controlled artificial feeding apparatus to allow continual access to organic bovine blood containing the desired concentration of compound. Fresh aliquots of compound-spiked bovine blood were provided daily for the duration of the study.
Assessment of mortality/knockdown was performed at various time points between 30 minutes and 24 hours post infestation. Mosquitoes showing no movement or mosquitoes that were knocked down were noted as dead. Results from trial 1 and trial 2 contact assays are shown in Tables 12 and 13, respectively and the results from trial 3 mosquito ingestion assay is shown in table 14.
For the mosquito contact and ingestion assays, each replicate contained 5 mosquitoes. For ease of calculation, the two replicates were added to equal a total of 10 mosquitoes.

[2] = test system: Ixodes scapularis; assay: In vitro contact activity against adult ticks (coated vial), I. scapularis; conditions: for mortality at 0.006 µM: Trial 1, dose 0.006 μM; for mortality at 0.024 µM: Trial 1, dose 0.024 μM; for mortality at 0.098 µM: Trial 1, dose 0.098 μM; for mortality at 0.39 µM: Trial 1, dose 0.39 μM; for mortality at 1.56 µM: Trial 1, dose 1.56 μM; for mortality at 6.25 µM: Trial 1, dose 6.25 μM; for mortality at 25 µM: Trial 1, dose 25 μM; for mortality at 100 µM: Trial 1, dose 100 μM
Procedure: Rhipicephalus sanguineus, Dermacentor variabilis, Amblyomma americanum, (Ecto Services, Inc., Henderson, N.C.) and Ixodes scapularis (Oklahoma State University, Stillwater, Okla.) aged between 2-4 weeks post molt were held in an environmental chamber at 24° C., 80% humidity with 12-hour light/dark cycles.
For tick assays, vial caps were pre-drilled with a single hole in the center of each cap to allow air exchange. A filter paper (Whatman Grade 540 2.1 cm) was placed in the lid of each vial. An aliquot from each compound stock was added to an acetone/triton solution to achieve the desired top doses for the study. Serial dilutions were conducted from the top dose (i.e. 100 ppm) to achieve the desired titration range for EC50 and EC90 determination. For R. sanguineus, D. variabilis, and A. americanum, the final DMSO concentration in each test vial was 0.5%. For I. scapularis, compounds were solubilized directly in an acetone/triton solution due to I. scapularis' sensitivity to DMSO. A 459 μL aliquot of each compound formulation was transferred to a vial containing a Whatman Grade 540 2.1 cm filter paper. Vials were immediately placed on an unheated roller unit to allow for an even coating of the vial walls. After vials were coated, 41 μL of each compound formulation was added to the filter paper embedded in each vial cap. Each cap was allowed to dry. The vials were loosely capped and allowed to dry for a minimum of four hours in a chemical fume hood.
as §1
Ten adult ticks were added to each vial and held at 24° C., 80% humidity with 12-hour light/dark cycles. Adult ticks were assessed for percent mortality at various time points between 2 hours and 48 hours post infestation. Ticks were stimulated on a heated roller unit and evaluated. Ticks showing no movement, or very slow and uncoordinated movement were noted as dead.

`O=C(CC(F)(F)F)N1CC2(C1)OCc1cc(C3=NS[C@@](c4cc(Cl)c(F)c(Cl)c4)(C(F)(F)F)C3)ccc12` [C1 (S) enantiomer, (S)-1-[6-[5-(3,5-dichloro-4-fluoro-phenyl)-5-(trifluoromethyl)-4H-isothiazol-3-yl]spiro[1H-isobenzofuran-3,3′-azetidine]-1′-yl]-3,3,3-trifluoro-propan-1-one] showed a mortality at 0.049 ppm ([1]; 24 h) of 70%, a mortality at 0.2 ppm ([1]; 24 h) of 100% and a mortality at 0.78 ppm ([1]; 24 h) of 100%. For the same compound, the mortality at 3.125 ppm ([1]; 24 h) was 100%, the mortality at 12.5 ppm ([1]; 24 h) was 100% and the mortality at 50 ppm ([1]; 24 h) was 100%. The mortality at 0.049 ppm [1] was 0%, the mortality at 0.2 ppm [1] was 44.4% and the mortality at 0.78 ppm [1] was 100%. It also gave a mortality at 3.125 ppm [1] of 100%, a mortality at 12.5 ppm [1] of 100% and a mortality at 50 ppm [1] of 100%. The mortality at 0.006 µM ([2]; 2 h, Rep1) was 0%, the mortality at 0.006 µM ([2]; 2 h, Rep2) was 0% and the mortality at 0.024 µM ([2]; 2 h, Rep1) was 0%. It also gave a mortality at 0.024 µM ([2]; 2 h, Rep2) of 0%, a mortality at 0.098 µM ([2]; 2 h, Rep1) of 0% and a mortality at 0.098 µM ([2]; 2 h, Rep2) of 0%. It also gave a mortality at 0.39 µM ([2]; 2 h, Rep1) of 0%, a mortality at 0.39 µM ([2]; 2 h, Rep2) of 0% and a mortality at 1.56 µM ([2]; 2 h, Rep1) of 0%. For the same compound, the mortality at 1.56 µM ([2]; 2 h, Rep2) was 0%, the mortality at 6.25 µM ([2]; 2 h, Rep1) was 0% and the mortality at 6.25 µM ([2]; 2 h, Rep2) was 0%. For the same compound, the mortality at 25 µM ([2]; 2 h, Rep1) was 0%, the mortality at 25 µM ([2]; 2 h, Rep2) was 0% and the mortality at 100 µM ([2]; 2 h, Rep1) was 0%. It also gave a mortality at 100 µM ([2]; 2 h, Rep2) of 0%, a mortality at 0.006 µM ([2]; 6 h, Rep1) of 0% and a mortality at 0.006 µM ([2]; 6 h, Rep2) of 0%. The mortality at 0.024 µM ([2]; 6 h, Rep1) was 0%, the mortality at 0.024 µM ([2]; 6 h, Rep2) was 0% and the mortality at 0.098 µM ([2]; 6 h, Rep1) was 0%. The mortality at 0.098 µM ([2]; 6 h, Rep2) was 0%, the mortality at 0.39 µM ([2]; 6 h, Rep1) was 0% and the mortality at 0.39 µM ([2]; 6 h, Rep2) was 0%. For the same compound, the mortality at 1.56 µM ([2]; 6 h, Rep1) was 0%, the mortality at 1.56 µM ([2]; 6 h, Rep2) was 0% and the mortality at 6.25 µM ([2]; 6 h, Rep1) was 0%. For the same compound, the mortality at 6.25 µM ([2]; 6 h, Rep2) was 0%, the mortality at 25 µM ([2]; 6 h, Rep1) was 40% and the mortality at 25 µM ([2]; 6 h, Rep2) was 40%. It also gave a mortality at 100 µM ([2]; 6 h, Rep1) of 100%, a mortality at 100 µM ([2]; 6 h, Rep2) of 100% and a mortality at 0.006 µM ([2]; 12 h, Rep1) of 0%. For the same compound, the mortality at 0.006 µM ([2]; 12 h, Rep2) was 0%, the mortality at 0.024 µM ([2]; 12 h, Rep1) was 0% and the mortality at 0.024 µM ([2]; 12 h, Rep2) was 0%. For the same compound, the mortality at 0.098 µM ([2]; 12 h, Rep1) was 0%, the mortality at 0.098 µM ([2]; 12 h, Rep2) was 0% and the mortality at 0.39 µM ([2]; 12 h, Rep1) was 0%. For the same compound, the mortality at 0.39 µM ([2]; 12 h, Rep2) was 0%, the mortality at 1.56 µM ([2]; 12 h, Rep1) was 0% and the mortality at 1.56 µM ([2]; 12 h, Rep2) was 0%. It also gave a mortality at 6.25 µM ([2]; 12 h, Rep1) of 40%, a mortality at 6.25 µM ([2]; 12 h, Rep2) of 50% and a mortality at 25 µM ([2]; 12 h, Rep1) of 100%. The mortality at 25 µM ([2]; 12 h, Rep2) was 90%, the mortality at 100 µM ([2]; 12 h, Rep1) was 100% and the mortality at 100 µM ([2]; 12 h, Rep2) was 100%. For the same compound, the mortality at 0.006 µM ([2]; 24 h, Rep1) was 0%, the mortality at 0.006 µM ([2]; 24 h, Rep2) was 0% and the mortality at 0.024 µM ([2]; 24 h, Rep1) was 0%. The mortality at 0.024 µM ([2]; 24 h, Rep2) was 0%, the mortality at 0.098 µM ([2]; 24 h, Rep1) was 0% and the mortality at 0.098 µM ([2]; 24 h, Rep2) was 0%. It also gave a mortality at 0.39 µM ([2]; 24 h, Rep1) of 0%, a mortality at 0.39 µM ([2]; 24 h, Rep2) of 0% and a mortality at 1.56 µM ([2]; 24 h, Rep1) of 50%. The mortality at 1.56 µM ([2]; 24 h, Rep2) was 60%, the mortality at 6.25 µM ([2]; 24 h, Rep1) was 100% and the mortality at 6.25 µM ([2]; 24 h, Rep2) was 90%. It also gave a mortality at 25 µM ([2]; 24 h, Rep1) of 100%, a mortality at 25 µM ([2]; 24 h, Rep2) of 100% and a mortality at 100 µM ([2]; 24 h, Rep1) of 100%. For the same compound, the mortality at 100 µM ([2]; 24 h, Rep2) was 100%, the mortality at 0.006 µM ([2]; 48 h, Rep1) was 0% and the mortality at 0.006 µM ([2]; 48 h, Rep2) was 10%. For the same compound, the mortality at 0.024 µM ([2]; 48 h, Rep1) was 0%, the mortality at 0.024 µM ([2]; 48 h, Rep2) was 0% and the mortality at 0.098 µM ([2]; 48 h, Rep1) was 10%. For the same compound, the mortality at 0.098 µM ([2]; 48 h, Rep2) was 10%, the mortality at 0.39 µM ([2]; 48 h, Rep1) was 40% and the mortality at 0.39 µM ([2]; 48 h, Rep2) was 40%. For the same compound, the mortality at 1.56 µM ([2]; 48 h, Rep1) was 90%, the mortality at 1.56 µM ([2]; 48 h, Rep2) was 100% and the mortality at 6.25 µM ([2]; 48 h, Rep1) was 100%. It also gave a mortality at 6.25 µM ([2]; 48 h, Rep2) of 100%, a mortality at 25 µM ([2]; 48 h, Rep1) of 100% and a mortality at 25 µM ([2]; 48 h, Rep2) of 100%. It also gave a mortality at 100 µM ([2]; 48 h, Rep1) of 100% and a mortality at 100 µM ([2]; 48 h, Rep2) of 100%.
